Columns and labels:
[1] = biological target: T1, GST-LXRβ ligand-binding domain (Homo sapiens, UniProt P55055); test: TR-FRETβ activity assay (NCoA3 coactivator peptide recruitment); type: biochemical; conditions: 1 μM 24(S)-25-epoxycholesterol prestimulation
T1 construct: amino acids 156-461; NP009052; made in house; host or cells: E. coli
T1 sequence (P55055 156-460 limits assumed): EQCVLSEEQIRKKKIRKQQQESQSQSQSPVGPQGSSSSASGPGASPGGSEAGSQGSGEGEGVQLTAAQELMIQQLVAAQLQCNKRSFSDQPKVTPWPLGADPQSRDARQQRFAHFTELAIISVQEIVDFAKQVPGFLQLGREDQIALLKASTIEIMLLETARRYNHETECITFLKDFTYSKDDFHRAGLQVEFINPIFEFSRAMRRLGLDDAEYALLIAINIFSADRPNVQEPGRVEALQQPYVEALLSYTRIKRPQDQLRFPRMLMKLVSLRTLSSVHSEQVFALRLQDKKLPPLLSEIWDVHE
Summary of the method: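 E. coli-expressed GST-LXRβ LBD (aa 156-461, 76 nM) with biotinylated NCoA3 peptide (400 nM) in Tris/HCl pH 6.8 containing 1 μM 24(S)-25-epoxycholesterol agonist. Compounds tested at 50 μM down to 0.002 μM in triplicate. TR-FRET (Tb cryptate/XL665, ex 340, em 615/665 nm) read after 1 h at 4° C.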

[2] = Short term HFD mouse model: plasma and liver exposure; type: in vivo; conditions: HFD mice, 4 h after final dose
Experimental: (§1) The in vivo transcriptional regulation of several LXR target genes by LXR modulators was assessed in mice.
(§2) For this, C57BL/6J were purchased from Elevage Janvier (Rennes, France) at the age of 8 weeks. After an acclimation period of two weeks, animals were prefed on a high fat diet (HFD) (Ssniff Spezialdiäten GmbH, Germany, Surwit EF D12330 mod, Cat. No. E15771-34), with 60 kcal % from fat plus 1% (w/w) extra cholesterol (Sigma-Aldrich, St. Louis, MO) for 5 days. Animals were maintained on this diet during treatment with LXR modulators. The test compounds were formulated in 0.5% hydroxypropylmethylcellulose (HPMC) and administered in three doses (from 1.5 to 20 mg/kg each) by oral gavage according to the following schedule: on day one, animals received treatment in the morning and the evening (ca. 17:00), on day two animals received the final treatment in the morning after a 4 h fast and were sacrificed 4 h thereafter. Animal work was conducted according to the national guidelines for animal care in Germany.
Upon termination, liver was collected, dipped in ice cold PBS for 30 seconds and cut into appropriate pieces. Pieces were snap frozen in liquid nitrogen and stored at −80° C. For the clinical chemistry analysis from plasma, alanine aminotransferase (ALT, IU/mL), cholesterol (CHOL, mg/dL) and triglycerides (TG, mg/dL) were determined using a fully-automated bench top analyzer (Respons®910, DiaSys Greiner GmbH, Flacht, Germany) with system kits provided by the manufacturer.

[3] = tested on: LXR target genes (Scd1, Fas, Srebp1) in liver; test: Short term HFD mouse model: gene expression in liver tissue; type: in vivo; conditions: HFD mice, expression normalized to Tbp; for response vs control in vivo at 20 mg/kg / response vs control in vivo at 10 mg/kg: Mus musculus, 4 h, read-out: Scd1 suppresion compared to vehicle
Experimental: as §1, §2
Analysis of gene expression in liver tissue. To obtain total RNA from frozen liver tissue, samples (25 mg liver tissue) were first homogenized with RLA buffer (4M guanidin thiocyanate, 10 mM Tris, 0.97% w:v β-mercapto-ethanol). RNA was prepared using a SV 96 total RNA Isolation system (Promega, Madison, Wisconsin, USA) following the manufacturer's instructions. cDNAs were synthesized from 0.8-1 μg of total RNA using All-in-One cDNA Supermix reverse transcriptase (Absource Diagnostics, Munich, Germany). Quantitative PCR was performed and analyzed using Prime time Gene expression master mix (Integrated DNA Technologies, Coralville, Iowa, USA) and a 384-format ABI 7900HT Sequence Detection System (Applied Biosystems, Foster City, USA). The expression of the following genes was analysed: Stearoyl-CoA desaturase1 (Scd1), fatty acid synthase (Fas) and sterol regulatory element-binding protein1 (Srebp1). Specific primer and probe sequences (commercially available) are listed in Table 3. qPCR was conducted at 95° C. for 3 min, followed by 40 cycles of 95° C. for 15 s and 60° C. for 30 s. All samples were run in duplicates from the same RT-reaction. Gene expression was expressed in arbitrary units and normalized relative to the mRNA of the housekeeping gene TATA box binding protein (Tbp) using the comparative Ct method.

[4] = three oral doses of 20 mg/kg over two days
[5] = three oral doses of 10 mg/kg over two days

Compound | EC50 [1] [nM] | liver exposure 4 h [2, 4] | liver/plasma ratio 4 h [2, 4] | plasma exposure 4 h [2, 4] | Srebp1c suppr. compared to vehicle ([3]; three oral doses of 20 mg/kg) | response vs control in vivo at 20 mg/kg ([3]; three oral doses of 20 mg/kg) [%] | liver exposure 4 h [2, 5] | liver/plasma ratio 4 h [2, 5] | plasma exposure 4 h [2, 5] | Fasn suppression compared to vehicle ([3]; three oral doses of 10 mg/kg) | response vs control in vivo at 10 mg/kg ([3]; three oral doses of 10 mg/kg) [%] | Fasn suppression compared to vehicle ([3]; three oral doses of 20 mg/kg) | Srebp1c suppr. compared to vehicle ([3]; three oral doses of 10 mg/kg)
O=C(O)c1ccc(-c2cccc(-c3c(-c4ccccc4C4COC4)c4cc(F)ccc4n3S(=O)(=O)c3ccc(C(F)F)cc3)c2)c(Cl)c1 [3/59] | < 100 | C (1 μM to ≤10 μM) | B (5 to ≤30) | C (100 nM to <300 nM) | D (<0.3) | 30 to 60 | – | – | – | – | – | – | –
N#Cc1cccc(C#N)c1-c1c(-c2cccc(-c3ccc(C(=O)NCC(=O)O)cc3Cl)c2)n(S(=O)(=O)c2ccc(C(F)F)cc2)c2ccc(F)cc12 [Compound 21/3] | < 100 | – | – | – | – | – | C (1 μM to ≤10 μM) | D (>100) | D (<100 nM) | C (0.3 to ≤0.6) | < 30 | – | –
N#Cc1cccc(C#N)c1-c1c(-c2cccc(-c3ccc(C(=O)O)cc3Cl)c2)n(S(=O)(=O)c2ccc(C(F)F)cc2)c2ccc(F)cc12 [11/12] | < 100 | C (1 μM to ≤10 μM) | C (30 to ≤100) | D (<100 nM) | – | < 30 | – | – | – | – | – | C (0.3 to ≤0.6) | –
N#Cc1cccnc1-c1c(-c2cccc(-c3ccc(C(=O)O)cc3Cl)c2)n(S(=O)(=O)c2ccc(C(F)F)cc2)c2ccc(F)cc12 [11/26] | < 100 | – | – | – | – | – | C (1 μM to ≤10 μM) | C (30 to ≤100) | C (100 nM to <300 nM) | D (<0.3) | 30 to 60 | – | D (<0.3)
COc1c(C(=O)O)ccc(-c2cccc(-c3c(-c4ccccc4C#N)c4cc(F)ccc4n3S(=O)(=O)c3ccc(C(F)F)cc3)c2)c1Cl [11/27] | < 100 | C (1 μM to ≤10 μM) | C (30 to ≤100) | D (<100 nM) | A (>0.9) | < 30 | – | – | – | – | – | C (0.3 to ≤0.6) | –
CN(CCS(=O)(=O)O)C(=O)c1ccc(-c2cccc(-c3c(-c4c(C#N)cccc4C#N)c4cc(F)ccc4n3S(=O)(=O)c3ccc(C(F)F)cc3)c2)c(Cl)c1 [10/2] | < 100 | – | – | – | – | – | D (>10 μM) | B (5 to ≤30) | D (<100 nM) | – | 30 to 60 | – | C (0.3 to ≤0.6)
O=C(O)c1ccc(-c2cccc(-c3c(-c4ncccc4C(F)(F)F)c4cc(F)ccc4n3S(=O)(=O)c3ccc(C(F)F)cc3)c2)c(Cl)c1 [11/23] | < 100 | C (1 μM to ≤10 μM) | B (5 to ≤30) | C (100 nM to <300 nM) | – | < 30 | – | – | – | – | – | C (0.3 to ≤0.6) | –
N#Cc1cccc(C#N)c1-c1c(-c2cccc(-c3ccc(C(=O)O)cc3F)c2)n(S(=O)(=O)c2ccc(C(F)F)cc2)c2ccc(F)cc12 [11/51] | < 100 | – | – | – | – | – | C (1 μM to ≤10 μM) | C (30 to ≤100) | D (<100 nM) | – | < 30 | – | D (<0.3)
N#Cc1sccc1-c1c(-c2cccc(-c3ccc(C(=O)O)cc3Cl)c2)n(S(=O)(=O)c2ccc(C(F)F)cc2)c2ccc(F)cc12 [11/17] | < 100 | D (>10 μM) | C (30 to ≤100) | C (100 nM to <300 nM) | – | < 30 | – | – | – | – | – | C (0.3 to ≤0.6) | –
Cc1ccc(S(=O)(=O)n2c(-c3cccc(-c4ccc(C(=O)O)cc4Cl)c3)c(-c3ccsc3C#N)c3cc(F)ccc32)cc1 [3/48] | 100 to 1000 | C (1 μM to ≤10 μM) | C (30 to ≤100) | D (<100 nM) | D (<0.3) | < 30 | – | – | – | – | – | – | –
